The values that follow come from paper PMC4113800 (Marine Drugs, 2014).

One series has as its system NCI-H460 cells. The series can be described thus: [3H]-mitoxantrone accumulation and efflux in parental NCI-H460 cells. It is filed as cell-based, human. Particulars: 11 at 10 or 30 μM, FTC 5.0 μM. The source says: […]. […] […]
The target in series [1] is T1, BCRP (Homo sapiens, UniProt Q9UNQ0).
T1 sequence (Q9UNQ0 1-655): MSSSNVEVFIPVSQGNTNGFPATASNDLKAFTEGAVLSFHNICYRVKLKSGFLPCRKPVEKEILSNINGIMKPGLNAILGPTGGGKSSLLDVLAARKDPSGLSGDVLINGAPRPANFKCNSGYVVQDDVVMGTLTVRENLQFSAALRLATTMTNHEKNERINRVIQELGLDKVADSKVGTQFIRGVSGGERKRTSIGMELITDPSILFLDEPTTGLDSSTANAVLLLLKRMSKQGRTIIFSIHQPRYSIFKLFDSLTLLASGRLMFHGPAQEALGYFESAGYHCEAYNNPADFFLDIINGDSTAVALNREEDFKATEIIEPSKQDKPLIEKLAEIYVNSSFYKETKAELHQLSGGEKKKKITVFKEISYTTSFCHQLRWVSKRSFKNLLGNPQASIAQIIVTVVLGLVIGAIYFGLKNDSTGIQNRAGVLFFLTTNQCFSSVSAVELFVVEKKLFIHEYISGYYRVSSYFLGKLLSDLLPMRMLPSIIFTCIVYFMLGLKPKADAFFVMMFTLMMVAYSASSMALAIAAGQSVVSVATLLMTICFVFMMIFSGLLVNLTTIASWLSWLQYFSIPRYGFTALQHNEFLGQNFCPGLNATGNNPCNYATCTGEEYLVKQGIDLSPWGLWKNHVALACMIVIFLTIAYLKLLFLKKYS
The series is described as follows: cell-based. The following applies: NCI-H460/MX20. The procedure: Flow cytometry based assays were used to measure the ability of natural or synthetic compounds to inhibit P-gp, BCRP or MRP1 mediated accumulation and/or efflux of fluorescent reagents. […] For the calcein AM accumulation assays, cells were directly analyzed by flow cytometry.
Intracellular fluorescence intensity was measured on a BD FACSCanto™ II flow cytometer (Becton Dickinson, San Jose, CA, USA) and data were analyzed through FlowJo (Tree Star, Inc., Ashland, OR, USA). […] Mitoxantrone fluorescence was detected with a 638 nm […] laser and a 660/20 nm band-pass filter. At least 10,000 events were collected for all of the flow cytometry experiment. By increasing threshold value on forward scatter versus side scatter, debris was eliminated. Dead cells were excluded based on propidium iodide staining. Data are means ± SEM of at least three independent experiments performed in duplicate.

In series [2] the target is T1, BCRP. The following applies: FTC 5.0 μM; [3H]-mitoxantrone 0.10 μM; NCI-H460/MX20. The procedure:
In the efflux study cells were incubated with 0.1 μM [^3H]-mitoxantrone as the same in the accumulation study.

`COc1ccc2c3c([nH]c2c1)[C@H](C=C(C)C)N1C(=O)[C@@H]2CCCN2C(=O)[C@@H]1C3` [FTC, Fumitremorgin C, reference compound]: in the series on NCI-H460 cells, the “effect on intracellular [3H]-mitoxantrone levels, accumulation phase” value is “neither 11 (10 or 30 μM) nor FTC (5.0 μM) significantly changed intracellular [^3H]-mitoxantrone levels” and the “effect on intracellular [3H]-mitoxantrone levels, efflux phase” value is recorded as “Neither 11 nor FTC had a significant effect”. Also, the “FAR (fluorescence arbitrary ratio), mitoxantrone fluorescence” value on BCRP [1] (FTC 10 μM (positive control) vs PBS) was determined as 3.17 fold. At BCRP [1] (FTC 10 μM (positive control, set as 100%)), the “% FTC (inhibition of mitoxantrone efflux normalized to 10 μM FTC)” value is recorded as 100 % FTC. The “increase in [3H]-mitoxantrone accumulation” value at BCRP [2] came out at 2.2 fold.
